# Activity calls are given as the source filed them. No cut-off for these calls is given here.
# Key:
# [1] = target: T1, Polyunsaturated fatty acid 5-lipoxygenase (Homo sapiens, UniProt P09917); assay: Inhibition of human recombinant 5-lipoxygenase assessed as arachidonic acid oxidation
# T1 sequence (P09917 whole entry): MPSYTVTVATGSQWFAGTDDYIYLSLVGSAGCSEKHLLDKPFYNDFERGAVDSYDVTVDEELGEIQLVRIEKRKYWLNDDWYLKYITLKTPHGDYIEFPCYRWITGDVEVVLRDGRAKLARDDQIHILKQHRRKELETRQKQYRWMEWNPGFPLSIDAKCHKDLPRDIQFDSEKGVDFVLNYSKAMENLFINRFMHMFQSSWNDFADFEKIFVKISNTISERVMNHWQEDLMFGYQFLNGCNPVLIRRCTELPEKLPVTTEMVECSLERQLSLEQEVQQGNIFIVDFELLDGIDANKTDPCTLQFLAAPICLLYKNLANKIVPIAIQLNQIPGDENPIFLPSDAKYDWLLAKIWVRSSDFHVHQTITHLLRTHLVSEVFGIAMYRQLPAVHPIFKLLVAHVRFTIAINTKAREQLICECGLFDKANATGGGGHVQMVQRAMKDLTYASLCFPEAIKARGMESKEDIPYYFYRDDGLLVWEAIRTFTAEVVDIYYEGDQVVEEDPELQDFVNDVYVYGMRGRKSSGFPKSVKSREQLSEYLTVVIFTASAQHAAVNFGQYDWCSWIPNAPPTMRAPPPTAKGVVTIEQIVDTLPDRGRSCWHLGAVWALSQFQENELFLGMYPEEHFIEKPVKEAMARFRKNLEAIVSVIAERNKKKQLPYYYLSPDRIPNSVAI
# [2] = target: T1, Polyunsaturated fatty acid 5-lipoxygenase; assay: Inhibition of 5-lipoxygenase in human whole blood assessed as inhibition of LTB4 production; assay type: tissue-based
# [3] = target: Voltage-gated inwardly rectifying potassium channel KCNH2 (Homo sapiens, UniProt Q12809); assay: Displacement of labeled MK-499 from human ERG
# Chain of Voltage-gated inwardly rectifying potassium channel KCNH2 (Q12809 whole entry): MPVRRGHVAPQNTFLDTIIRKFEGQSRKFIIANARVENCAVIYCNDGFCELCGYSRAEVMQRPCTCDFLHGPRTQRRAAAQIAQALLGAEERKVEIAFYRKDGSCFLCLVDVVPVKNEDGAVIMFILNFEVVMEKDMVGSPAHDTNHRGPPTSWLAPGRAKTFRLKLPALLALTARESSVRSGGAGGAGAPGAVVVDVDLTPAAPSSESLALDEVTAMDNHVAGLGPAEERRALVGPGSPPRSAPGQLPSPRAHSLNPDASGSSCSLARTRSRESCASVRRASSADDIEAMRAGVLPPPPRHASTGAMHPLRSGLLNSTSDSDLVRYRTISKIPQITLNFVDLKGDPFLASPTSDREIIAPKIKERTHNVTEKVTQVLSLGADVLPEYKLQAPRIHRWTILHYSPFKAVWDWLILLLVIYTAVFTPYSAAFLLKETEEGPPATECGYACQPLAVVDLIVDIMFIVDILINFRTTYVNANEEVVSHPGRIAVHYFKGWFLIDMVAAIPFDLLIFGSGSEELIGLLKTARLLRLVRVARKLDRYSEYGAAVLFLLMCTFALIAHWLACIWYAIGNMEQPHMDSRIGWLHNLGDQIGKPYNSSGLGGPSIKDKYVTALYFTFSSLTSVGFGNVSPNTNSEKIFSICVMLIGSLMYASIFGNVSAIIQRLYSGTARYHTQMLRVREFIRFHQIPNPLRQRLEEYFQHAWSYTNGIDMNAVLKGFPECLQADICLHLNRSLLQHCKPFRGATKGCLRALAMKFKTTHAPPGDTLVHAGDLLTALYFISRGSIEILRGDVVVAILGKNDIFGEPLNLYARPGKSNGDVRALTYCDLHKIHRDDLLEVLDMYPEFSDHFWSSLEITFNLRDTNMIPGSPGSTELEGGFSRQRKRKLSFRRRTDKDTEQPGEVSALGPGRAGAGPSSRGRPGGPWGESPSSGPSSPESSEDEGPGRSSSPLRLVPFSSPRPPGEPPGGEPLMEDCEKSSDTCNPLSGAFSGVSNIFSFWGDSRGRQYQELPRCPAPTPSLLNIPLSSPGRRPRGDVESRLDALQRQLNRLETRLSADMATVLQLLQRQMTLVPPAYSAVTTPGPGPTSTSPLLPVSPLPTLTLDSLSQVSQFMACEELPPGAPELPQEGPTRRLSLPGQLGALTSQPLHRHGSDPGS
# [4] = target: T2, Polyunsaturated fatty acid lipoxygenase ALOX12 (Homo sapiens, UniProt P18054); assay: Inhibition of 12-lipoxygenase
# T2 sequence (P18054 whole entry): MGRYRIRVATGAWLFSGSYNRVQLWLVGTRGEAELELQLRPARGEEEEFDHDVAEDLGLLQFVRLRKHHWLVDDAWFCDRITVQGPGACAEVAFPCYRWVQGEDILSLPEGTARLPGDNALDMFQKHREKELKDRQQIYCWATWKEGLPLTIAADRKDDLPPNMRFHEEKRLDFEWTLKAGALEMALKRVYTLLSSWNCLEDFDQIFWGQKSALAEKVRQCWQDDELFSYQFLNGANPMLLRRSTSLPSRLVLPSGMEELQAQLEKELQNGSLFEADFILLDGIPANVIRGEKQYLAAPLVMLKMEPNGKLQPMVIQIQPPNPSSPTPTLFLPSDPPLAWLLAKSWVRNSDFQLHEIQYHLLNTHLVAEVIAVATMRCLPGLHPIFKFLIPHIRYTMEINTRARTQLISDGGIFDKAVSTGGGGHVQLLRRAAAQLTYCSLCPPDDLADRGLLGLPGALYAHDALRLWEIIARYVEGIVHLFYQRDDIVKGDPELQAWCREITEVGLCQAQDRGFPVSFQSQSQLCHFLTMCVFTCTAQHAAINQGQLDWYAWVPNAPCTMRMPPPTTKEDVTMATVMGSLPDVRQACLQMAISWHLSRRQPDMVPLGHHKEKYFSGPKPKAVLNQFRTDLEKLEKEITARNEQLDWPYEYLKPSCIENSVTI
# [5] = target: T3, Polyunsaturated fatty acid lipoxygenase ALOX15 (Homo sapiens, UniProt P16050); assay: Inhibition of 15-lipoxygenase
# T3 sequence (P16050 whole entry): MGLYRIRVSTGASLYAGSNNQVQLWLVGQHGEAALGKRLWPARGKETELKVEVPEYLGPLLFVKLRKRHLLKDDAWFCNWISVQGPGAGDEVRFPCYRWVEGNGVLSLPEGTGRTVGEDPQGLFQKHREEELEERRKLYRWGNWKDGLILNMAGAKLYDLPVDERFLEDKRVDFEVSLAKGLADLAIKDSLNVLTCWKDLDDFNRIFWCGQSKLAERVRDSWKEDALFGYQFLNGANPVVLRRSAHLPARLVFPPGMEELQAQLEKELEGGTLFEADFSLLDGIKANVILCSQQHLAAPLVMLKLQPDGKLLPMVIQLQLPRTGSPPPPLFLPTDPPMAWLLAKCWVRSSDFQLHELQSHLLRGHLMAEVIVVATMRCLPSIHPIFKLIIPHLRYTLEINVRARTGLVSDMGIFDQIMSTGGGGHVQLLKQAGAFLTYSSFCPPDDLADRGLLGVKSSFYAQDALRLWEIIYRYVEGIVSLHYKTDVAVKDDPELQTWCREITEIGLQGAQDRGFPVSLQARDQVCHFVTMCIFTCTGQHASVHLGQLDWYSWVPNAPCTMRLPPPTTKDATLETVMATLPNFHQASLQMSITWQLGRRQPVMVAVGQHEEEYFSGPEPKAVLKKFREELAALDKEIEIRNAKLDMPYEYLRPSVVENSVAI
# [6] = target: T4, Arachidonate 5-lipoxygenase-activating protein (Homo sapiens, UniProt P20292); assay: (§1) Inhibition of 5-lipoxygenase activating protein
# T4 sequence (P20292 whole entry): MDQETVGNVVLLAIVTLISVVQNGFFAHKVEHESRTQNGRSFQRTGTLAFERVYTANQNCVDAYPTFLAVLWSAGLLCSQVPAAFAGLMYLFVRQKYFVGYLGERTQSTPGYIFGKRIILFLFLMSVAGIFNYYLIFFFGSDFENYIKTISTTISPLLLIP
# [7] = Oral bioavailability in rat at 20 mg/kg; assay type: ADME, organism-based; conditions: in vivo
# [8] = Half life in rat at 5 mg/kg, iv and 20 mg/kg, po; assay type: ADME, organism-based; conditions: in vivo
# [9] = Cmax in rat at 5 mg/kg, iv and 20 mg/kg, po; assay type: ADME, organism-based; conditions: in vivo
# [10] = Oral bioavailability in dog at 4 mg/kg; assay type: ADME, organism-based, Canis lupus familiaris; conditions: in vivo
# [11] = Half life in dog at 5 mg/kg, iv and 4 mg/kg, po; assay type: ADME, organism-based, Canis lupus familiaris; conditions: in vivo
# [12] = Cmax in dog at 5 mg/kg, iv and 4 mg/kg, po; assay type: ADME, organism-based, Canis lupus familiaris; conditions: in vivo
# [13] = Oral bioavailability in rhesus monkey at 4 mg/kg; assay type: ADME, organism-based, Macaca mulatta; conditions: in vivo
# [14] = Half life in rhesus monkey at 5 mg/kg, iv and 4 mg/kg, po; assay type: ADME, organism-based, Macaca mulatta; conditions: in vivo
# [15] = Cmax in rhesus monkey at 5 mg/kg, iv and 4 mg/kg, po; assay type: ADME, organism-based, Macaca mulatta; conditions: in vivo
# [16] = target: T5, Arachidonate 5-lipoxygenase-activating protein (Homo sapiens) (UniProt P20292); assay: as §1
# T5 sequence (whole entry): T4 sequence (P20292 whole entry)
IC50 [1] [nM],IC50 [2] [nM],SMILES,Ki ([3]; read-out: Ki) [nM],other results
223,263,CCC(O)(c1cn(Cc2ccc3c(-c4ccccc4)c(C(=O)NC)sc3c2)nn1)C(F)(F)F (stereo not given),–,–
11,84,CCC(O)(c1cn(Cc2ccc3c(-c4ccccc4)c(C(C)=O)sc3c2)nn1)C(F)(F)F (stereo not given),4400,–
28,32,CC[C@](O)(c1cn(Cc2ccc3c(-c4ccccc4)c(C(N)=O)sc3c2)nn1)C(F)(F)F,–,–
> 10000,> 20000,CCC(O)(c1cn(Cc2ccc3c(-c4ccccc4)c(C(=O)O)sc3c2)nn1)C(F)(F)F (stereo not given),> 20000,–
7.9,260,CCC(O)(c1cn(Cc2ccc3c(-c4ccccc4)c(C(=O)OC)sc3c2)nn1)C(F)(F)F (stereo not given),–,–
1890,1840,CCC(O)(c1cn(Cc2ccc3c(-c4ccccc4)c(C(=O)N(C)C)sc3c2)nn1)C(F)(F)F (stereo not given),> 20000,–
55,70,CCC(O)(c1cn(Cc2ccc3c(-c4ccccc4)c(C(N)=O)sc3c2)nn1)C(F)(F)F (stereo not given),–,–

# Continued, compound first:
SMILES,IC50 [1] [nM],IC50 [2] [nM],Ki ([3]; read-out: Ki) [nM],other results
CCC(O)(c1cn(Cc2ccc3c(-c4ccccc4)c(CO)sc3c2)nn1)C(F)(F)F (stereo not given),19,64,13000,–
CC[C@](O)(c1cn(Cc2ccc3c(-c4ccc(F)cc4)c(C(N)=O)sc3c2)nn1)C(F)(F)F,55,21,13000,IC50 [4]: > 20000 nM; IC50 [5]: > 20000 nM; IC50 [6]: > 20000 nM; bioavailability [7]: 114%; half-life [8]: 7.9 h; Cmax [9]: 19.4 µM; bioavailability [10]: 120%; half-life [11]: 29 h; Cmax [12]: 6.7 µM; bioavailability [13]: 66%; half-life [14]: 22 h; Cmax [15]: 1.4 µM
CCC(O)(c1cn(Cc2ccc3c(-c4ccccc4)csc3c2)nn1)C(F)(F)F (stereo not given),40,598,–,Ki [3]: Not Active
CC[C@@](O)(c1cn(Cc2ccc3c(-c4ccc(F)cc4)c(C(N)=O)sc3c2)nn1)C(F)(F)F,1160,154,11000,–
CCC(O)(c1cn(Cc2ccc3c(-c4ccccc4)c(C(C)O)sc3c2)nn1)C(F)(F)F (stereo not given),88,161,3800,–
CC[C@](O)(c1cn(Cc2ccc3c(-c4cccc(F)c4)c(C(N)=O)sc3c2)nn1)C(F)(F)F,39,31,14000,–
CC[C@](O)(c1cn(Cc2ccc3c(-c4ccc(F)cc4)c(C(=O)O)sc3c2)nn1)C(F)(F)F,> 10000,> 20000,> 20000,inhibition [16]: inactive; inhibition (INH) ([3]; human): Not Active
CCC(O)(c1cn(Cc2ccc3c(-c4ccccc4)c(C(C)(C)O)sc3c2)nn1)C(F)(F)F (stereo not given),198,392,2600,–

# — ChEMBL document CHEMBL1287744, “Potent and selective 5-LO inhibitor bearing benzothiophene pharmacophore: discovery of MK-5286” (Bioorg Med Chem Lett, 2010)
